# Data taken from patent US10702512B2, “Treatment of debilitating fatigue” (A. CARLSSON RESEARCH AB, priority 2015, dated 2020).
# Legend:
# Type in all cases: in vivo, human
# ME/CFS patients [1] = test: Barrow Neurological Institute Screen for Higher Cerebral Functions (BNIS)
# Method: Next, patients were evaluated using a neuropsychological test. 61 patients were included in a neuropsychological examination. All subjects were tested once in connection with the randomization with the BNIS neuropsychological screening test. 20-30 minutes was required for this test. With the purpose of measuring the cognitive effects of the OSU6162 treatment six more tests were distributed at a first occasion before the initiation of treatment and at a second occasion after the treatment was completed. These tests required 20 minutes each. All tests were performed by a neuropsychologist. Barrow Neurological Institute Screen for Higher Cerebral Functions (BNIS) is a screening test constructed to quantitatively and qualitatively reflect the outcome of a range of higher cerebral functions. The three initial items are pre-screening items where arousal level, basic communication skills and level of cooperation are assessed (a maximum score of 9) to decide whether the status of the patients allows further testing. At least two points in each item are required. The BNIS contains the following domains: speech and language (maximum score 15), orientation (maximum score 3), attention/concentration (maximum score 3), visual and visual spatial problem solving (maximum score 8), learning and memory (maximum score 7), affect (maximum score 4) and awareness vs. performance (maximum score 1). The test provides a total score=50 of overall cognitive functioning and subscale scores. A score less than 47 indicates brain dysfunction.
# ME/CFS patients [2] = test: FibroFatigue scale (FF) total score, phase II clinical study
# Text: As used herein, the term “FF-scale” or “FF” refers to the FibroFatigue scale also known as the fibromyalgia and chronic fatigue syndrome rating scale described in by Zachrisson and coworkers (Zachrisson O, et al, (2002) J Psychosom Res Jun; 52(6):501-9). The FibroFatigue scale is an observer's rating scale with 12 items measuring pain, muscular tension, fatigue, concentration difficulties, failing memory, irritability, sadness, sleep disturbances, and autonomic disturbances and irritable bowel, headache and subjective experience of infection. […] Circular coated tablets for oral use of 15 mg and matching placebos was used. The tablets were administered by research nurses at the study site. The tablets were circular coated tablets for oral use containing 15 mg OSU6162. Matching placebos were used. The start dose was 15 mg OSU6162 twice daily (before breakfast and lunch) during 1 week with dose increase up to 30 mg twice daily during the following week. Additionally, the clinical effect was evaluated using the FF-scale, The Beck/BDI scale, VAS pain scale and with neuropsychological tests. To examine the effect of treatment and concomitant use of an antidepressant, antidepressant was included as a fixed factor in the analyses. […] Outcome targets FF, MFS and BDI were measured.
# ME/CFS patients [3] = test: Coding test (WAIS subtest); set-up: key to Coding test score, min / Coding test score, max / Coding test, Difference, increased mean / Coding test score, mean / Coding test score, median: number of symbols correctly copied within 90 seconds
# Method: Next, patients were evaluated using a neuropsychological test. 61 patients were included in a neuropsychological examination. All subjects were tested once in connection with the randomization with the BNIS neuropsychological screening test. 20-30 minutes was required for this test. With the purpose of measuring the cognitive effects of the OSU6162 treatment six more tests were distributed at a first occasion before the initiation of treatment and at a second occasion after the treatment was completed. These tests required 20 minutes each. All tests were performed by a neuropsychologist. The Coding test is a subtest from WAIS, Wechsler Adult Intelligence Scale and measures the processing speed. The performance reflects abilities such as visual-motor coordination, motor and mental speed and working memory. It requires the subject to copy, as quickly and correctly as possible, nine symbols, one by one in 93 boxes, placed below each number. The symbol connected with the numbers is available. The score is the number of symbols registered within 90 seconds.
# [4] = OSU6162 concentration in blood plasma
# Method: Next, the concentration of OSU6162 in blood plasma was measured and analyzed for correlations with time and changes in FF, MFS and BDI score.
# Plasma concentrations of OSU6162 were measured in 30 patients who received placebo and in 31 patients who received OSU6162. The blood sample was drawn in the morning after the tablet was taken—the time of the tablet intake was noted and reported to the clinic by the patient. The blood sample was taken at minimum 65 and at maximum 180 minutes after tablet intake. The mean time was 123 minutes and the standard deviation 33 minutes.
# In order to analyze the relationship between the treatment outcome and the concentration of OSU6162 in blood plasma, OSU6162 concentrations in patients measured after week 2 were plotted against change in FF, MFS and BDI score (FIGS. 6, 7 and 8).
# [5] = OSU6162 group, tested once in connection with randomization
structure (smiles),measurement,setting,value
"CCCN1CCC[C@@H](c2cccc(S(C)(=O)=O)c2)C1.Cl [OSU6162, (3S)-3-[3-(methylsulfonyl)-phenyl]-1-propylpiperidine hydrochloride]","BNIS total score, max",ME/CFS patients [1]; [5],50
same,"BNIS total score, mean",ME/CFS patients [1]; [5],45.2
same,"BNIS total score, min",ME/CFS patients [1]; [5],33
same,BNIS difference between OSU6162 and placebo groups,ME/CFS patients [1]; in vivo,No significant difference
same,FF main effect of treatment,"ME/CFS patients [2]; 2-way ANOVA, OSU6162 vs placebo",None
same,FF interaction between treatment with OSU6162 and antidepressant over time,"ME/CFS patients [2]; 3-way ANOVA week*treatm*antidepr, F3,180=6.785, p=0.0002",statistically significant 3-way interactions
same,FF difference between OSU6162 treated and placebo treated patients,"ME/CFS patients [2]; patients not on antidepressant therapy, post hoc comparison",No difference
same,"FF change from week 0, difference OSU6162 vs placebo (95% confidence interval)","ME/CFS patients [2]; patients on stable antidepressant therapy, after one week of treatment, F1,56=6.320, p=0.015, Bonferroni",−7.23 (−13.1 to −1.48)
same,"Coding test score, max",ME/CFS patients [3]; after treatment,93
same,"Coding test score, mean",ME/CFS patients [3]; after treatment,56.29
same,"Coding test score, median",ME/CFS patients [3]; after treatment,56
same,"Coding test score, min",ME/CFS patients [3]; after treatment,37
same,"Coding test, Difference, increased mean",ME/CFS patients [3]; after vs before treatment,5
same,Coding test difference between OSU6162 and placebo groups,ME/CFS patients [3]; before and after treatment,No significant differences
same,"Coding test score, max",ME/CFS patients [3]; before treatment,80
same,"Coding test score, mean",ME/CFS patients [3]; before treatment,51.42
same,"Coding test score, median",ME/CFS patients [3]; before treatment,51
same,"Coding test score, min",ME/CFS patients [3]; before treatment,31
same,correlation between plasma concentration and time between tablet intake and blood sampling,"[4]; Spearman rank correlation, sampling 65-180 minutes after tablet intake",No significant correlation
same,therapeutic optimum plasma concentration,"[4]; plasma after week 2 plotted against change in FF, MFS and BDI score, above 0.7 μM no further improvement",0.3 to 0.7 µM
